Source: patent US20110135739A1, “Oral Formulations of a Hedgehog Pathway Inhibitor” (priority 2009, published 2011)

Key:
[1] = system: Hedgehog pathway; settings: after single administration; cited from earlier work
[2] = system: preclinical in vivo models, such as medulloblastoma, small cell lung cancer, non-small cell lung cancer, skin cancer, head and neck cancer, and ovarian cancer; settings: a number of preclinical in vivo models; cited from earlier work
[3] = Early dissolution experiments / dissolution attempted in various aqueous media; type: physicochemical
Text: Gel formation is problematic from a formulation standpoint because it can result, for example, in irregular release of IPI-926 in vivo. Low rates of dissolution, and subsequent gel formation, persist even when small particle sizes (e.g., less than 150 micrometers) of IPI-926 are employed.
Without wishing to be bound to any particular theory, it was hypothesized that IPI-926 formed the solid agglomerate upon hydration. Accordingly, direct blend formulations were investigated.

[4] = system: human cell lines derived from patients with pancreatic cancer, medulloblastoma, lung cancer, multiple myeloma, acute lymphocytic leukemia, myelodysplatic …; settings: described in WO 2008083252 and WO 2008083248; cited from earlier work

Q: With `CC1=C2C[C@H]3[C@@H](CC[C@@H]4C[C@H](NS(C)(=O)=O)CC[C@@]43C)[C@@H]2CC[C@@]2(C1)O[C@@H]1C[C@H](C)CN[C@H]1[C@H]2C.Cl` [IPI-926] as the molecule, how does the “Hedgehog pathway inhibition in stromal cells” value [1] read?
A: The value was “rapid and sustained Hedgehog pathway inhibition”.

Q: What about the tumor growth inhibition [2] of the same molecule?
A: Its tumor growth inhibition is “tumor growth inhibition”.

Q: What about the “behaviour when dissolution is attempted” value [3] of the same molecule?
A: Its value is “gel, rather than dissolve”.

Q: And the “in vitro growth of human cell lines” value [4]?
A: The value was “inhibit in vitro growth”.
